We go through 5 compounds from paper PMC6511888, “Synthesis, Biological Evaluation, and Molecular Modeling Studies of New Thiadiazole Derivatives as Potent P2X7 Receptor Inhibitors” (Frontiers in Chemistry, 2019).

The target in data set [1] is T1, human P2X7R (Homo sapiens, UniProt Q99572).
T1 construct: expressed in transfected cells; host or cells: HEK-293
T1 sequence (Q99572 1-595): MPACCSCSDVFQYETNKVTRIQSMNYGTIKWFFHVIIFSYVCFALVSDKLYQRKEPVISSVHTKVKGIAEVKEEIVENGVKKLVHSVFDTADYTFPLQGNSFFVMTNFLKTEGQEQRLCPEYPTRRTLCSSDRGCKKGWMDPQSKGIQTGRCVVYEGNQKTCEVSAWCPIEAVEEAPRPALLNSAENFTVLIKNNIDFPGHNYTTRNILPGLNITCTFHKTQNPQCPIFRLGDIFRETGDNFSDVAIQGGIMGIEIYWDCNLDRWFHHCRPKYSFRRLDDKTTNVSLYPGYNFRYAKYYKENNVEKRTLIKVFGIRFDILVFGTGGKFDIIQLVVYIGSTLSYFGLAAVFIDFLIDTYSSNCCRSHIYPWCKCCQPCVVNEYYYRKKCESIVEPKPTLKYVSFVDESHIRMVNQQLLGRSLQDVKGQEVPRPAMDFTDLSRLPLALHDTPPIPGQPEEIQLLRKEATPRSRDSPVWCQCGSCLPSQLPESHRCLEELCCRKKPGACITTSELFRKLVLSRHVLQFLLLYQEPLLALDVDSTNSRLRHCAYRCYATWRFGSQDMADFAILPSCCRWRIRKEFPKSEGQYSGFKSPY
As to the kind of experiment: Dye uptake assay (ethidium bromide) in HEK-293 cells transfected with hP2X7R. In kind it is cell-based. The settings on record: for IC50: ethidium uptake assay, HEK-293 cells transfected with human P2X7R, mean ± SD. As to the method:
HEK-293 cells expressing human P2X7R were maintained in Dulbecco's modified Eagle's medium (DMEM; Sigma-Aldrich) supplemented with 10% fetal bovine serum (FBS; Prolab, Br) and anti-biotics (50 U/ml penicillin and […] streptomycin) in a humidified 5% CO2 atmosphere at 37°C (Faria et al., [2018]). A total of 5 × 10^5 cells were plated at 37°C in a humidified 5% CO2 atmosphere for 24 h in a 96-well plate for dye uptake or IL-1β release assays.
(§1) HEK-293 cells transfected with hP2X7R and mouse peritoneal macrophages were plated at 2.5 × 10^6 or 5 × 10^5 cells/ml, respectively, in 96-well culture plates containing DMEM with 10% FBS and anti-biotics (50 U/ml penicillin and […] streptomycin) in a humidified 5% CO2 atmosphere at 37°C for 24 h (Faria et al., [2018]).
P2X7R antagonist and thiadiazole analogs (1 nM to 0.5 mM) were incubated for 5 min before ATP (5 mM) treatment for 20 min. In the last 5 min of ATP incubation, propidium iodide for macrophages (PI; 750 nM) or ethidium bromide (EB; 25 μM) for HEK-293 cells was added to all wells. PI dye was excited at a wavelength of 530 nm, and its fluorescence emission was read at a wavelength of 590 nm using an M5 plate reader (Molecular Devices). EB dye was excited at a wavelength of 530 nm and emitted at a wavelength of 620 nm.

Data set [2] can be described thus: Stability in human liver microsomes. The format is in vitro ADME. Particulars: pH 7.4, read-out: LM stability human (CLint). As to the method: Thiadiazole 9f stability was evaluated in liver microsomes from male mice and humans according to Faria et al. in 2018 (Faria et al., [2018]). Both solutions contained a final protein concentration of 0.5 mg/ml (0.1 M phosphate buffer) at pH 7.4. Microsomes were preincubated with 9f (1 μM) and DMSO ([…]) at 37°C before NADPH (1 mM) addition. A control for the reaction was a buffer containing 0.1 M phosphate at pH 7.4 in a final volume of 50 μl. Diazepam and verapamil were used as positive controls for mice and humans, respectively. Both types of microsomes were treated with 9f for 0, 5, 15, 30, and 45 min and the negative control [minus Nicotinamide adenine dinucleotide phosphate (NADPH)] for 45 min. To stop the reactions, methanol (50 μl) was added at the appropriate time points, and the samples were centrifuged (1,640 × g) for 20 min at 4°C to […] protein precipitation.
In vitro intrinsic clearance (CLint mic) for the metabolism of 9f in mouse and human liver microsomes was calculated using the equations below:
Half-life (t1/2) (minutes) = 0.693/k (1)
V(μL/mg) = volume of the incubation solution (μl)/protein in the incubation solution (mg) (2)
Intrinsic clearance (CLint) (μl/minutes/mg protein) = V × 0.693/t1/2 (3) according to the manufacturer's instructions.
A general note: Microsomes from liver hold many membrane-bound enzymes, among them those of drug oxidation.

The target in data set [3] is T2, P2X7R (Mus musculus, UniProt Q9Z1M0).
T2 construct: plated for 24 h before dye uptake assays, whole-cell patch clamp experiments, and IL-1β release assays; endogenous in cells; host or cells: mouse (Swiss Webster) peritoneal macrophages
T2 sequence (Q9Z1M0 1-595): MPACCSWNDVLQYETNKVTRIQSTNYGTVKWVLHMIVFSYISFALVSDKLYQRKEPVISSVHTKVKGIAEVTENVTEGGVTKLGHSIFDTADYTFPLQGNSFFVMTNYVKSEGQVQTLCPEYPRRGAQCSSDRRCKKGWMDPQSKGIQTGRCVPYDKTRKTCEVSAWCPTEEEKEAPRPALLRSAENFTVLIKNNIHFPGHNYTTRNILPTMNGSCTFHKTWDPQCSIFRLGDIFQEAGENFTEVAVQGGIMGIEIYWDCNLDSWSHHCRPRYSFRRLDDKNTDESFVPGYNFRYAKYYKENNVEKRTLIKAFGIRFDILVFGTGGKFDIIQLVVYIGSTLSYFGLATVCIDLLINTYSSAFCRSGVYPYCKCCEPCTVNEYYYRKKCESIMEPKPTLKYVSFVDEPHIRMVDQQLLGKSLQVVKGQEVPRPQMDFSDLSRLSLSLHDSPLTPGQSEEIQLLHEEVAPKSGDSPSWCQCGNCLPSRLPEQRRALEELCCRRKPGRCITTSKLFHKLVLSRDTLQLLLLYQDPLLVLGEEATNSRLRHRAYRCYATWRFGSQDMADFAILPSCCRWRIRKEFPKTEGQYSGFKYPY
The experiment in a line: Dye uptake assay (propidium iodide) in mouse peritoneal macrophages. The format is cell-based. The settings on record: mean ± SD; for inhibition at 10 µM: percentage relative to the maximum uptake of propidium stimulated by 1 mM ATP only; for IC50: propidium uptake assay, mice peritoneal macrophages. As to the method: Our protocols adhered to the Ethical Principles in Animal Experimentation adopted by the Brazilian College of Animal Experimentation and approved by the FIOCRUZ Research Ethics Committee (Faria et al., [2005]; number L039- 2016). Male mouse (Swiss Webster) peritoneal macrophages were collected from peritoneal cavity lavage and plated for 24 h before dye uptake assays, whole-cell patch clamp experiments, and IL-1β release assays.
as §1
[…] In the last 5 min of ATP incubation, propidium iodide for macrophages (PI; 750 nM) or ethidium bromide (EB; 25 μM) for HEK-293 cells was added to all wells. PI dye was excited at a wavelength of 530 nm, and its fluorescence emission was read at a wavelength of 590 nm using an M5 plate reader (Molecular Devices). EB dye was excited at a wavelength of 530 nm and emitted at a wavelength of 620 nm.

The mark [4] stands for this setting: dye uptake, HEK-293-transfected cells.

Compound `N#Cc1cnn(-c2nnc(-c3ccccc3Cl)s2)c1N` [Compound 9b] returned a melting point of 250 to 251 °C. The compound also showed an IC50 in data set [1] of 41 ± 8 nM. Also, in data set [2], the microsomal CLint at 1 μM is 26.4 µL/min/mg. In data set [3], the inhibition at 10 µM is 30 ± 0.6% and the concentration for half-maximal inhibition (IC50) was 111 ± 9 nM.
The matching figures for `N#Cc1cnn(-c2nnc(-c3ccc(F)cc3)s2)c1N` [Compound 9c]: 262 to 263 °C, 56 ± 2 nM, 18.6 µL/min/mg, 28.2 ± 0.7% and 109 ± 11 nM.
As to `CCOC(=O)c1cnn(-c2nnc(-c3ccccc3Cl)s2)c1N` [Compound 9f], the melting point was 190 to 191 °C. Moreover, in data set [1] (setting [4]), the “Potency relative to A740003 (times greater)” value was “eight” and the “Potency relative to BBG (times greater)” value is “more than 50 times”. Also, the half-maximal inhibitory concentration (IC50) in data set [1] is 11 ± 1 nM. Also, the microsomal CLint at 1 μM in data set [2] was found to be 39.5 µL/min/mg. In data set [3], this compound had an inhibition at 10 µM of 15.7 ± 0.6% and a half-maximal inhibitory concentration (IC50) of 16 ± 2 nM.
`Cc1cc(C)n(-c2nnc(-c3ccc(F)cc3)s2)n1` [Compound 11c, 2-(3,5-dimethyl-1H-pyrazol-1-yl)-5-(4-fluorophenyl)-1,3,4-thiadiazole] returned a melting point of 174 °C. This compound also came in with an IC50 in data set [1] of 82 ± 5 nM. For the same compound, the microsomal CLint at 1 μM in data set [2] is 46.7 µL/min/mg. In data set [3], this compound had an inhibition at 10 µM of 29.2 ± 0.3% and an IC50 of 122 ± 13 nM.
On to `COc1ccc(CC(=O)NC(NC(=NC#N)Nc2cccc3ncccc23)C(C)(C)C)cc1OC` (stereo not drawn) [Compound A740003, N-(1-{[(cyanoimino)(5-quinolinylamino)methyl]amino}-2,2-dimethylpropyl)-2-(3,4-dimethoxyphenyl)acetamide], for which the IC50 in data set [1] was determined as 97 ± 18 nM; in data set [3] it was 108 ± 16 nM.

One may read the IC50 as the concentration at which inhibition is half-maximal. A higher IC50 goes with a need for much substance. As usually defined, the melting point is the temperature, or range, at which the solid turns liquid. In general, inhibition refers to the relative decrease from the control value, in per cent.
